Several values for one entry are separate records, joined by “and”; a condition that tells them apart may be missing. Equal entries are not always repeated.
Assay: mn = molality of the nth substance listed, in mol/kg
Conditions: 298.15 K, 101.33 kPa, Liquid

CCCC[N+](CCCC)(CCCC)CCCC.[Br-] [tetrabutylammonium bromide] + O
Conditions	mass density [kg/m3]
m1 = 0.0509	998.2
m1 = 0.1034	999.39
m1 = 0.2709	1003.18
m1 = 0.589	1010.09
m1 = 0.7318	1013.27

CC[N+](CC)(CC)CC.[Br-] [tetraethylammonium bromide] + O
Conditions	mass density
m1 = 0.102	1000.71 kg/m3
m1 = 0.4023	1010.95 kg/m3
m1 = 0.549	1015.83 kg/m3
m1 = 1.212	1035.35 kg/m3 and 1035.67 kg/m3

C[N+](C)(C)C.[Br-] [tetramethylammonium bromide] + O
Conditions	mass density
m1 = 0.2579	1006.85 kg/m3
m1 = 0.258	1006.83 kg/m3
m1 = 0.2581	1006.9 kg/m3
m1 = 0.532	1016.59 kg/m3
m1 = 0.5322	1016.42 kg/m3
m1 = 0.5325	1016.59 kg/m3
m1 = 0.8105	1025.86 kg/m3
m1 = 0.8239	1026.24 kg/m3
m1 = 1.134	1036.07 kg/m3 and 1035.72 kg/m3
m1 = 1.839	1046.9 kg/m3
